Laboratory results from PubChem BioAssay (NCI).
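These data come from cells grown in 96-well plates and exposed to compound for 48 hours at five concentrations. TGI: total growth inhibition.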

Experiments:
Assay in all cases: DTP human tumour cell line panel, 48 h
OVCAR-8 ovarian = test system: OVCAR-8 ovarian
BT-549 breast = test system: BT-549 breast
OVCAR-4 ovarian = test system: OVCAR-4 ovarian
SNB-75 CNS = test system: SNB-75 CNS
PC-3 prostate = test system: PC-3 prostate
SK-MEL-2 melanoma = test system: SK-MEL-2 melanoma
SR leukemia = test system: SR leukemia
SK-MEL-28 melanoma = test system: SK-MEL-28 melanoma
NCI-H23 lung = test system: NCI-H23 lung
SW-620 colon = test system: SW-620 colon
MALME-3M melanoma = test system: MALME-3M melanoma
MDA-MB-435 = test system: MDA-MB-435
CCRF-CEM leukemia = test system: CCRF-CEM leukemia
MOLT-4 leukemia = test system: MOLT-4 leukemia
U251 CNS = test system: U251 CNS
SK-MEL-5 melanoma = test system: SK-MEL-5 melanoma
SF-539 CNS = test system: SF-539 CNS
SN12C renal = test system: SN12C renal
TK-10 renal = test system: TK-10 renal
SF-295 CNS = test system: SF-295 CNS
RXF 393 renal = test system: RXF 393 renal
K-562 leukemia = test system: K-562 leukemia
OVCAR-3 ovarian = test system: OVCAR-3 ovarian
HL-60(TB) leukemia = test system: HL-60(TB) leukemia
HCC-2998 colon = test system: HCC-2998 colon
SF-268 CNS = test system: SF-268 CNS
NCI/ADR-RES ovarian = test system: NCI/ADR-RES ovarian
IGROV1 ovarian = test system: IGROV1 ovarian
M14 melanoma = test system: M14 melanoma
HOP-92 NSCLC = test system: HOP-92 NSCLC
DU-145 prostate = test system: DU-145 prostate
HCT-116 colon = test system: HCT-116 colon
MDA-MB-231 breast = test system: MDA-MB-231 breast
A549 NSCLC = test system: A549 NSCLC
HT29 colon = test system: HT29 colon
UACC-257 melanoma = test system: UACC-257 melanoma
NCI-H226 lung = test system: NCI-H226 lung
SNB-19 CNS = test system: SNB-19 CNS
ACHN renal = test system: ACHN renal
UACC-62 melanoma = test system: UACC-62 melanoma
OVCAR-5 ovarian = test system: OVCAR-5 ovarian
NCI-H522 lung = test system: NCI-H522 lung
EKVX NSCLC = test system: EKVX NSCLC
T-47D breast = test system: T-47D breast
RPMI-8226 leukemia = test system: RPMI-8226 leukemia
CAKI-1 renal = test system: CAKI-1 renal
COLO 205 colon = test system: COLO 205 colon
MCF7 breast = test system: MCF7 breast
A498 renal = test system: A498 renal
LOX IMVI melanoma = test system: LOX IMVI melanoma
786-0 renal = test system: 786-0 renal
SK-OV-3 ovarian = test system: SK-OV-3 ovarian
MDA-N = test system: MDA-N
HOP-62 NSCLC = test system: HOP-62 NSCLC
KM12 colon = test system: KM12 colon
HCT-15 colon = test system: HCT-15 colon
NCI-H460 lung = test system: NCI-H460 lung
HS 578T breast = test system: HS 578T breast
UO-31 renal = test system: UO-31 renal

Measured: TGI

Clc1ccc(C=NC23CC4CC(CC(C4)C2)C3)cc1Cl
> 10 µM: OVCAR-8 ovarian | BT-549 breast | OVCAR-4 ovarian | SNB-75 CNS | PC-3 prostate | SK-MEL-2 melanoma | SR leukemia | SK-MEL-28 melanoma | NCI-H23 lung | SW-620 colon | MALME-3M melanoma | MDA-MB-435 | CCRF-CEM leukemia | MOLT-4 leukemia | U251 CNS | SK-MEL-5 melanoma | SF-539 CNS | SN12C renal | TK-10 renal | SF-295 CNS | RXF 393 renal | K-562 leukemia | OVCAR-3 ovarian | HL-60(TB) leukemia | HCC-2998 colon | SF-268 CNS | NCI/ADR-RES ovarian | IGROV1 ovarian | M14 melanoma | HOP-92 NSCLC | DU-145 prostate | HCT-116 colon | MDA-MB-231 breast | A549 NSCLC | HT29 colon | UACC-257 melanoma | NCI-H226 lung | SNB-19 CNS | ACHN renal | UACC-62 melanoma | OVCAR-5 ovarian | NCI-H522 lung | EKVX NSCLC | T-47D breast | RPMI-8226 leukemia | CAKI-1 renal | COLO 205 colon | MCF7 breast | A498 renal | LOX IMVI melanoma | 786-0 renal | SK-OV-3 ovarian | MDA-N | HOP-62 NSCLC | KM12 colon | HCT-15 colon | NCI-H460 lung | HS 578T breast

O=C(O)c1cc(O)c2c(c1)C([C@@H]1c3cccc(O)c3C(=O)c3c(O)cc(C(=O)O)cc31)c1cccc(O)c1C2=O (stereo partly drawn)
69.4 µM: HS 578T breast
95.8 µM: MDA-MB-231 breast
85.5 µM: HL-60(TB) leukemia
69.3 µM: A498 renal
86.4 µM: K-562 leukemia
49.4 µM: IGROV1 ovarian
31.9 µM: LOX IMVI melanoma
49 µM: MDA-MB-435
44.6 µM: NCI-H522 lung
41.5 µM: MDA-N
91.8 µM: MCF7 breast
> 100 µM: OVCAR-8 ovarian | BT-549 breast | OVCAR-4 ovarian | PC-3 prostate | SR leukemia | SK-MEL-28 melanoma | NCI-H23 lung | SW-620 colon | CCRF-CEM leukemia | SN12C renal | TK-10 renal | SF-295 CNS | UO-31 renal | OVCAR-3 ovarian | HCC-2998 colon | NCI/ADR-RES ovarian | DU-145 prostate | A549 NSCLC | HT29 colon | UACC-257 melanoma | NCI-H226 lung | SNB-19 CNS | ACHN renal | OVCAR-5 ovarian | EKVX NSCLC | T-47D breast | RPMI-8226 leukemia | CAKI-1 renal | COLO 205 colon | 786-0 renal | SK-OV-3 ovarian | NCI-H460 lung
57.7 µM: HOP-92 NSCLC
38.1 µM: HCT-116 colon
62.6 µM: SNB-75 CNS
44.3 µM: KM12 colon
67.8 µM: U251 CNS
96.9 µM: SF-268 CNS
69.2 µM: MOLT-4 leukemia
85 µM: RXF 393 renal
44.7 µM: MALME-3M melanoma
32.2 µM: SK-MEL-5 melanoma
78.6 µM: UACC-62 melanoma
55 µM: SF-539 CNS
